Patent publication US6586596B2, “Acetylcholine enhancers” (priority 1998, dated 2003)

What was measured:
[1] = test system: cycloheximide-induced amnesia; assay: Passive avoidance, cycloheximide-induced memory impairment; format: in vivo, male Wistar rats; details: oral, 30 minutes before acquisition trial; cycloheximide 1.5 mg/kg s.q.
Protocol: Cutoff latency was set at 600 seconds.
Rats were treated s.q. with cycloheximide (1.5 mg/kg), a protein synthesis inhibitor, immediately after the electric shock.

5-HT3 receptor = target: T1, 5-HT3 receptor (Mus musculus, UniProt P23979); assay: serotonin 5-HT3 binding assay (NovaScreen), NIE-115 cells; details: 25° C., 60 minutes
T1 construct: The receptor source was NIE-115 cells; host or cells: NIE-115 cells
T1 sequence (P23979 24-489): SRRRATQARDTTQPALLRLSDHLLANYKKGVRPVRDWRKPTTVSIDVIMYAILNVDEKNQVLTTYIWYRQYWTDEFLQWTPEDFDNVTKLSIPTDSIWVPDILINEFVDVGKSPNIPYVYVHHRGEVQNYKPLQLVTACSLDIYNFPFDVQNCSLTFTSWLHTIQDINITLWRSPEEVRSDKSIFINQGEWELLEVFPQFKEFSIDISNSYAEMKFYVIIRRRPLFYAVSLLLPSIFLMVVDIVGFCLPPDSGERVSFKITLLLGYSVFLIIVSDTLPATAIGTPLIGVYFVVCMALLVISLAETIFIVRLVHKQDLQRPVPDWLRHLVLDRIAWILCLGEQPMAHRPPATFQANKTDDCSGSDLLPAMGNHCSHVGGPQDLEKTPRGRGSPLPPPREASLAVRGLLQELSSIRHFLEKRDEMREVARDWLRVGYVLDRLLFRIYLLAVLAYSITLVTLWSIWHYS
Protocol: Binding affinity of a variety of compounds, including Cm.A, for the 5-HT3 receptor was investigated using a commercially available serotonin 5-HT3 binding assay (NovaScreen, Hanover, Md.). The receptor source was NIE-115 cells (See Lunnis, S. C. R. and Kilparick, G. J., 189: Evr. Jrnl. Pharmacol. 223 (1990); and Hoyer, D. and Heijt, H. C., 33 Mol. Pharmacol., 303 (1988)). The reference compound utilized was “MDL 72222,” a 5-HT3 receptor antagonist. Reactions were carried out in 20 mM HEPES (pH 7.4) containing 150 mM NaCl at 25° C. for 60 minutes. The reaction was terminated by rapid vacuum filtration onto glass fiber filters. Radioactivity trapped onto the filters was determined and compared with the control values.

**Q.** `COc1c2c(nc3ccccc13)CN(CCC1CCN(Cc3ccccc3)CC1)C2=O` [Cm.A, 2-[2-(1-benzylpiperizin-4-yl)ethyl]-2,3-dihydro-9-methoxy-1H-pyrrolo[3,4-b]quinolin-1-one hemifumarate] was tested. Which “latency in retention trial, cycloheximide-induced amnesia” value [1] did it give?
**A.** The value was “prolonged the shortened latency induced by cycloheximide in a nondose dependent manner”.

**Q.** What about the IC50 (5-HT3 receptor; IC50, 20 mM HEPES pH 7.4, 150 mM NaCl) of the same molecule?
**A.** The IC50 was 1.18 µM.

**Q.** And the Ki (5-HT3 receptor; Ki, 20 mM HEPES pH 7.4, 150 mM NaCl)?
**A.** The Ki was 0.552 µM.
